According to paper PMC12217462 (Antimicrobial Agents and Chemotherapy, 2025):
Values joined by “and” are separate entries in the source; they are usually repeats but may differ in a detail not shown here. Identical values can stand only once. Like-named read-outs stand apart in the source and are kept apart here.

What was measured:
Babesia duncani [1] = conditions: cited from earlier work
Babesia duncani [2] = assay: Propidium iodide-based in vitro dose-response assay, B. duncani-infected red blood cells, 384-well plates; format: cell-based; conditions: for EC90: read-out: EC90 (95% CI)
Procedure: Frozen stocks of B. duncani were provided by the Ben Mamoun lab at Yale University. Culture maintenance was undertaken as described by Singh et al^18 with the following adaptations: Media, completed DMEM/F12 (cDMEM; 20% heat-inactivated fetal bovine serum (Sigma-Aldrich catalogue #12,306 C-500ML), 1 x HT media supplement (Sigma-Aldrich catalogue # H0137-10VL), 1 x L-glutamine (Gibco, catalogue # 25030–081), 1 x antibiotic-antimycotic (Gibco catalogue #15240–062), and 1 x gentamicin (Gibco catalogue #15710–072)), was changed every other day and cultures were kept in a modular incubator gassed with 2% O2, 5% CO2, 93% N2 at 37°C. Passage occurred once a week into fresh blood at 1%–2% parasitemia, 5% hematocrit, and fresh A + blood was obtained once a week from the University of Vermont Medical Center Blood Bank. Four days before the start of drug assay testing, a 10 mL, 5% hematocrit culture was infected to 2% parasitemia with Babesia duncani. One day before the start, the media was changed, and parasitemia was assessed by light microscopy examination of Giemsa-stained thin blood smears with a minimum of 500 red blood cells counted.
Fresh A + blood was washed three times, and a stock 10% hematocrit (HCT) solution of uninfected red cells in completed F12/DMEM media (cDMEM) was created. In a 96-well plate, a pellet from a vigorously growing (≥20% parasitemia) culture was used to create a 10% hematocrit starting well that was then serially diluted five times with the stock 10% hematocrit solution. 25 µL of each serial dilution was transferred to a white, clear-bottom 384-well plate (Falcon, catalog #353963) in triplicate before 25 µL of cDMEM was added to each well, followed by 25 µL of 0.6% Triton-X, 22.5 µM PI in phosphate-buffered solution. The 384-well plate was then shaken for 30 seconds, incubated at 37°C for 1 hour (in the dark), then moved to room temperature in the dark. After 24 hours, the plate was read using a Synergy H1 (BioTek, Winooski, VT) with excitation = 535 nm, emission = 615 nm, sensitivity = 150, and readings taken from the bottom of the wells. Blood smears were made from select undiluted starting wells and stained with Giemsa, and parasitemia was calculated manually from a minimum of 1,000 counted red blood cells. The experiment was repeated twice.
(§1) Prior to the removal of the culture(s) from the modular incubator, fresh A + blood was washed three times with PSG +and compounds (in DMSO stocks) to be tested were prepared in a 96-well plate by serial dilution in cDMEM. Once prepared, the culture(s) were removed from the modular incubator, collected, and washed once with 7 mL of cDMEM. A 10% hematocrit, 5% parasitemia stock in cDMEM was made, and 25 µL aliquoted into a 384-well plate with constant agitation, followed by 25 µL of compound dilution (quadruplicates). The positive growth control was given 25 µL of 0.5% dimethyl sulfoxide (DMSO) in cDMEM (final 0.25% DMSO), and the negative growth control was 25 µL of 50 µM WR99210 (0.5% DMSO) (final 25 µM WR99210, 0.25% DMSO). Plates were incubated as previously described, smears of the positive growth control were made, and the plates were read as previously described. Smears were stained by Giemsa, and a minimum of 1,000 RBCs were counted to determine parasitemia. Dose-response assays were repeated twice.
Pilot dose-response experiments were performed using WR99210 (a DHFR inhibitor with known effect on Babesia duncani), DMSO vehicle, and standard of care drugs atovaquone, clindamycin, quinine, and azithromycin ([20]).
The positive growth control was treated with 25 µL of 0.5% dimethyl sulfoxide (DMSO) in cDMEM (final 0.25% DMSO), and the negative growth control with 25 µL of 50 µM WR99210 (0.5% DMSO) (final 25 µM WR99210, 0.25% DMSO). The plate was incubated for 48 hours and then the plate was stained and read as previously described.

Babesia duncani [3] = assay: Bug Box single-concentration screen, PI assay in 384-well plates; format: cell-based; conditions: read-out: Inhibition in Bug Box screen (hit definition)
Procedure: as §1
The Bug Box is a collection of 40 compounds with known antimicrobial and/or bioactivity, which was provided by the Structural Genomics Consortium (SGC)-Toronto. The full list of compounds is available in the supplement. They were obtained in 10 mM aliquots and screened in 384-well plates at 1 µM and 5 µM dilutions with four technical replicates per dilution. Hits were defined as those compounds with at least 80% inhibition. Hits were validated by dose-response curves using commercially obtained compounds with verified purity. The only exception to this was in the verification of compound M7, which is a proprietary compound that could be obtained only from SGC-Toronto. Dose-response curves were created from two independent experiments, each with nine dilutions of the drug.

B. divergens = test system: B. divergens; set-up: method as in earlier work; conditions: ref 35 (Vanheer et al.); cited from earlier work
HCT8 cells = assay: Cytotoxicity on confluent monolayer HCT8 cells (Promega CellTiter Aqueous One MTS assay); format: cell-based, human; conditions: 48 hours, highest final concentration 100 µM, two replicate experiments
Procedure: Human HCT8 cells were grown in tissue culture flasks until a confluent monolayer was achieved. […] Cells were incubated with the drug for 48 hours. Promega CellTiter Aqueous One Solution Cell Proliferation Assay (MTS) (PRG3580) was commercially obtained and used to ascertain cell viability, with […] measured using a Biotek microplate reader. Cells incubated in 0.5% DMSO served as a positive growth control and comparator arm.

P. falciparum = test system: P. falciparum; set-up: method as in PMID 26199860, PMID 33541085; conditions: depending on the strain tested; cited from earlier work
[4] = cited from earlier work
[5] = Cytotoxicity on confluent monolayer HCT8 cells (Promega CellTiter Aqueous One MTS assay); format: cell-based; conditions: human HCT8 cells
[6] = set-up: method as in PMID 22553374; conditions: oral, 28-day, once-daily dosing study in humans; cited from earlier work
solid tumor cells = test system: solid tumor cells; set-up: method as in PMID 19344997; conditions: cited from earlier work
liquid tumor cell lines = test system: liquid tumor cell lines; set-up: method as in PMID 19344997; conditions: cited from earlier work
normal cells = test system: normal cells; set-up: method as in PMID 19344997; conditions: cited from earlier work
[7] = test system: normal cell lines (human mammary and renal epithelial cells, among others); set-up: method as in PMID 19344997; conditions: cited from earlier work
malignant cells = test system: malignant cells; set-up: method as in PMID 19344997; conditions: malignant cells treated; cited from earlier work
[8] = B. duncani in vitro, 48 hours of incubation, PI staining, read-out: EC50
[9] = Babesia duncani, Erythrocyte, 48 h, B. duncani in vitro, 48 hours of incubation, PI staining, read-out: EC50
[10] = Babesia duncani, Erythrocyte, 48 h, given in Fig 2 and Fig 3B, nine-point serial dilution, 48 hours, experiments repeated twice, read-out: EC50 (95% CI)
[11] = Babesia duncani, Erythrocyte, given in Fig 2 and Fig 3B, nine-point serial dilution, 48 hours, experiments repeated twice
[12] = screened at 5 µM, four technical replicates
[13] = 12 mg given orally (PO) thrice weekly
[14] = Babesia duncani, Erythrocyte, Table 1, B. duncani, two replicate 9-point dilution experiments, combined data, read-out: EC50
[15] = Babesia duncani, Erythrocyte, B. duncani, read-out: In vitro IC90
[16] = Babesia duncani, Erythrocyte, conversion of B. duncani IC90, read-out: Free plasma concentration equivalent to IC90

## O=C1C(O)=C([C@H]2CC[C@H](c3ccc(Cl)cc3)CC2)C(=O)c2ccccc21 [Atovaquone]
Babesia duncani [1]; Babesia duncani, SYBR green assay, ref 9 (Abraham et al.)
  EC50: 0.5 µM
Babesia duncani [1]; later Babesia duncani testing, same lab group
  EC50: 0.072 µM
Babesia duncani [2]; [8]
  EC50: 0.517 µM
Babesia duncani [2]; [9]
  EC50: 0.518 µM
Babesia duncani [2]; [10]
  EC50: 0.52 µM
Babesia duncani [2]; [11]
  EC90: 0.78 µM
Babesia duncani [3]; [12]
  inhibition at 5 µM: > 80%

## C=C[C@H]1C[N@@]2CC[C@H]1C[C@H]2[C@H](O)c1ccnc2ccc(OC)cc12 [Quinine]
Babesia duncani [2]; [9]
  EC50: 17.5 µM
Babesia duncani [2]; [10]
  EC50: 18 µM
Babesia duncani [2]; [11]
  EC90: 33 µM

## CC[C@H]1OC(=O)[C@H](C)[C@@H](O[C@H]2C[C@@](C)(OC)[C@@H](O)[C@H](C)O2)[C@H](C)[C@@H](O[C@@H]2O[C@H](C)C[C@H](N(C)C)[C@H]2O)[C@](C)(O)C[C@@H](C)CN(C)[C@H](C)[C@@H](O)[C@]1(C)O [Azithromycin]
Babesia duncani [2]; [9]
  EC50: 12.4 µM
Babesia duncani [2]; [10]
  EC50: 12 µM
Babesia duncani [2]; [11]
  EC90: 28 µM

## c1ccc2c(c1)[I+]c1ccccc1-2 [diphenylene iodonium chloride, Diphenyleneiodonium chloride]
Babesia duncani [2]; [9]
  EC50: 0.55 µM
Babesia duncani [2]; [11]
  EC90: 1.6 µM
Babesia duncani [3]; [12]
  inhibition at 5 µM: > 80%

## Cn1cc(CNCC2CCN(c3ncc(C(=O)NO)cn3)CC2)c2ccccc21 [Quisinostat]
B. divergens
  EC50: 0.0046 µM
HCT8 cells
  TC50 HCT8: 170 µM
P. falciparum
  EC50: 0.005 to 0.007 µM
[4]; [13]
  Area under the curve (AUC): 18 ng*H/mL
  Peak plasma concentration (Cmax): 0.0019 µg/mL
Babesia duncani [2]; [14]
  EC50: 0.0045 µM
Babesia duncani [2]; [15]
  IC90: 0.01 µM
Babesia duncani [2]; [16]
  IC90: ~0.004 mg/L

## O=C(NO)c1cnc(N2C[C@@H]3[C@H](C2)[C@H]3NCc2ccc3cc(F)ccc3n2)nc1 [Nanatinostat]
HCT8 cells
  TC50 HCT8: 44 µM
[5]
  EC50 at 48 h: 56.2 µM
[6]
  Protocol defined maximum tolerated dose: 80 mg
[4]; single 20 mg oral dose
  Cmax: 0.186 µg/mL
Babesia duncani [2]; [8]
  EC50: 0.0238 µM
Babesia duncani [2]; [9]
  EC50: 0.023 µM
Babesia duncani [2]; [14]
  EC50: 0.024 µM
Babesia duncani [2]; [15]
  IC90: 0.064 µM
Babesia duncani [2]; [16]
  IC90: ~0.025 mg/L

## CC1(C)N=C(N)N=C(N)N1OCCCOc1cc(Cl)c(Cl)cc1Cl [WR99210]
Babesia duncani [2]; [8]
  EC50: 0.0083 µM and ~0.0083 µM
Babesia duncani [2]; given in Fig 2 and Fig 3B, nine-point serial dilution, 48 hours, experiments repeated twice
  EC90: 0.014 µM

## CCCCc1nc2cc(/C=C/C(=O)NO)ccc2n1CCN(CC)CC [Pracinostat]
HCT8 cells
  TC50 HCT8: 450 µM
Babesia duncani [2]; [14]
  EC50: 0.16 µM

## CCN(CC)Cc1ccc2cc(COC(=O)Nc3ccc(C(=O)NO)cc3)ccc2c1 [Givinostat]
HCT8 cells
  TC50 HCT8: 43 µM
Babesia duncani [2]; [14]
  EC50: 0.22 µM

## CCC[C@@H]1C[C@@H](C(=O)N[C@@H]([C@H]2O[C@H](SC)[C@H](O)[C@@H](O)[C@H]2O)[C@H](C)Cl)N(C)C1 [Clindamycin]
Babesia duncani [2]; [10]
  EC50: > 50 µM
Babesia duncani [2]; dose-response assay, 48 hours
  Inhibition of B. duncani growth (in words): appeared not to inhibit at all

## O=C(/C=C/c1ccc(CN(CCO)CCc2c[nH]c3ccccc23)cc1)NO [Dacinostat]
B. divergens
  EC50: 0.112 µM
HCT8 cells
  TC50 HCT8: 150 µM
Babesia duncani [2]; [14]
  EC50: 0.023 µM

## Nc1ccccc1NC(=O)c1ccc(CNc2nccc(-c3cccnc3)n2)cc1 [Mocetinostat]
HCT8 cells
  TC50 HCT8: 56 µM
Babesia duncani [2]; [14]
  EC50: 2.5 µM

## O=C(CCCCCCC(=O)Nc1ccccc1)NO [Vorinostat]
HCT8 cells
  TC50 HCT8 (µM): No toxicity

## Cc1[nH]c2ccccc2c1CCNCc1ccc(/C=C/C(=O)NO)cc1 [Panobinostat]
Solid tumor cells
  LD90: less than 500 nM
B. divergens
  EC50: 0.0272 µM
Liquid tumor cell lines
  LD90: less than 100 nM
HCT8 cells
  TC50 HCT8: 130 µM
P. falciparum
  EC50: 0.01 to 0.03 µM
Babesia duncani [2]; [9]
  EC50: 0.008 µM
Babesia duncani [2]; [14]
  EC50: 0.0084 µM
Babesia duncani [2]; [11]
  EC90: 0.037 µM
Normal cells
  Caspase expression compared with control: no increase
[7]
  LD90: > 5 µM
Babesia duncani [3]
  inhibition at 5 µM: > 80%
Malignant cells
  Increase in apoptotic signaling: 10- to 11 fold

## Nc1ccccc1NC(=O)c1ccc(CNC(=O)OCc2cccnc2)cc1 [Entinostat]
HCT8 cells
  TC50 HCT8: 110 µM
Babesia duncani [2]; [14]
  EC50: 23 µM

## COc1cc(Cc2cnc(N)nc2N)cc(OC)c1OC [Trimethoprim]
Babesia duncani [2]; [9]
  EC50: 2.7 µM
Babesia duncani [2]; [11]
  EC90: 4.5 µM
Babesia duncani [3]; [12]
  inhibition at 5 µM: > 80%

## O=C(/C=C/c1cccc(S(=O)(=O)Nc2ccccc2)c1)NO [Belinostat]
HCT8 cells
  TC50 HCT8: 90 µM
Babesia duncani [2]; [14]
  EC50: 0.15 µM
